Measured values published in paper PMC5487340, “Peptides derived from MARCKS block coagulation complex assembly on phosphatidylserine” (Scientific Reports, 2017).

B1: annexin V: PS binding protein, positive control (protein)
chain: MAQVLRGTVTDFPGFDERADAETLRKAMKGLGTDEESILTLLTSRSNAQRQEISAAFKTLFGRDLLDDLKSELTGKFEKLIVALMKPSRLYDAYELKHALKGAGTNEKVLTEIIASRTPEELRAIKQVYEEEYGSSLEDDVVGDTSGYYQRMLVVLLQANRDPDAGIDEAQVEQDAQALFQAGELKWGTDEEKFITIFGTRSVSHLRKVFDKYMTISGFQIEETIDRETSGNLEQLLLAVVKSIRSIPAYLAETLYYAMKGAGTDDHTLIRVMVSRSEIDLFNIRKEFRKNFATSLYSMIKGDTSGDYKKALLLLCGEDD

Assays:
[1] = test system: prothrombinase (bovine FXa and FVa) on washed human platelets activated by convulxin and thrombin; test: Platelet-dependent prothrombinase assay; type: biochemical; conditions: 1 μM, washed human platelets with convulxin and thrombin, thrombin Vmax with S-2238, n = 8
Protocol: Human whole blood was collected from healthy volunteers by venipuncture into 3.2% sodium citrate. Washed platelets were prepared from whole blood collected by venipuncture into 3.8% sodium citrate and acid-citrate-dextrose (ACD). Platelet-rich plasma (PRP) was prepared by centrifugation of whole blood at 200 g for 20 min. Platelets were isolated from the PRP by centrifugation at 1000 g for 10 min with 0.1 μg ml^−1 prostacyclin (PGI2) (Sigma-Aldrich). The resulting pellet was resuspended with modified Tyrode’s buffer (129 mM NaCl, 20 mM HEPES, 12 mM NaHCO3, 2.9 mM KCl, 1.0 mM MgCl2, 0.34 mM Na2HPO4, 5 mM glucose, pH 7.3), ACD, and 0.1 μg ml^−1 PGI2. Platelets were then washed by re-pelleting at 1000 g for 10 min and re-suspending with modified Tyrode’s buffer.
Effects on coagulation factor enzymatic activity were determined using a modification of a previously described prothrombinase assay, [55]. Washed human platelets (8 × 10^5 reaction^−1) were incubated at 37 °C with either a buffer blank or 375 ng ml^−1 convulxin (Centerchem, Norwalk, CT) and 5.0 nM thrombin (Haematologic Technologies) in modified Tyrode’s buffer containing 2.9 mM CaCl2 and 0.05% wt vol^−1 fatty acid-free bovine serum albumin (BSA). After 7 min, 1 μM investigational peptide or protein, or a buffer blank, was added, followed 3 min later by bovine FXa (3 nM) and FVa (6 nM) (Haematologic Technologies). […]

[2] = test system: fibrin formation in whole human blood; test: Whole blood microfluidic flow assay; type: cell-based; conditions: whole human blood over collagen, 10 min, wall shear rate 100 s^-1, 1 μM peptide or annexin V, heparin 15 USP ml^-1, n = 6
From the text: Effects on whole blood platelet activation and accumulation, as well as fibrin formation, were examined using a modification of a previously described microfluidic flow assay. A custom polydimethylsiloxane microfluidic flow device containing four channels, each with a height of 100 μm and width of 500 μm, was vacuum mounted to a glass slide patterned with a type I fibrillar collagen strip (Chrono-log). The microfluidic flow device channels were oriented perpendicular to the patterned collagen strip, resulting in a 50 μm patch of collagen across the width of each channel. Whole blood was labeled with a Pacific Blue anti-human CD41 antibody (BioLegend) for 10 min, followed by the addition of 30 μg ml^−1 Alexa Fluor 647 human plasma fibrinogen conjugate (Life Technologies) and either 1 μM NBD labeled investigational peptide, 1 μM annexin V (BioVision), or 15 USP ml^−1 heparin. Immediately before the assay, the whole blood mixture was recalcified to 7.5 mM CaCl2. The whole blood was then pulled through the device channels for 10 min at wall shear rate 100 s^−1 using a PhD Ultra syringe pump (Harvard Apparatus, Holliston, MA). […] Fluorescence intensities and platelet surface area coverages were measured using ImageJ (NIH, Bethesda, MD). […]

[3] = test system: P-selectin positive platelets; test: Flow cytometry of binding to platelets; type: cell-based; conditions: washed human platelets, 1 μM NBD labeled peptide, 30 min, n = 6
Protocol: Human whole blood was collected from healthy volunteers by venipuncture into 3.2% sodium citrate. Washed platelets were prepared from whole blood collected by venipuncture into 3.8% sodium citrate and acid-citrate-dextrose (ACD). Platelet-rich plasma (PRP) was prepared by centrifugation of whole blood at 200 g for 20 min. Platelets were isolated from the PRP by centrifugation at 1000 g for 10 min with 0.1 μg ml^−1 prostacyclin (PGI2) (Sigma-Aldrich). The resulting pellet was resuspended with modified Tyrode’s buffer (129 mM NaCl, 20 mM HEPES, 12 mM NaHCO3, 2.9 mM KCl, 1.0 mM MgCl2, 0.34 mM Na2HPO4, 5 mM glucose, pH 7.3), ACD, and 0.1 μg ml^−1 PGI2. Platelets were then washed by re-pelleting at 1000 g for 10 min and re-suspending with modified Tyrode’s buffer. Washed platelets were obtained from the whole blood as described above. The platelets were resuspended in modified Tyrode’s buffer containing 2 mM CaCl2, counted, and diluted to 2 × 10^4 platelets μL^−1. Platelets were stimulated with either 1 IU ml^−1 thrombin (Chrono-log, Havertown, PA), 250 ng ml^−1 convulxin (Centerchem), 1 IU ml^−1 thrombin and 250 ng ml^−1 convulxin, or left unstimulated for 10 min at room temperature. […] The samples were then immediately fixed in 1% paraformaldehyde, diluted, and analyzed on a MoFlo Astrios EQ flow cytometer (Beckman Coulter, Brea, CA) with appropriate color compensation.

| Molecule | reduction in prothrombinase activity [1] [%] | fibrin formation on adherent platelets (in words) [2] | labeling of unstimulated platelets [3] |
| --- | --- | --- | --- |
| H-GGDYDKIGKNDA-NH2 [C2BL3-L, NH2-GGDYDKIGKNDA-CONH2] | 17 | – | – |
| heparin | – | equivalent fibrin formation inhibition to that of the MARCKS ED peptides | – |
| B1 | – | equivalent fibrin formation inhibition to that of the MARCKS ED peptides | Neither D-MARCKS ED nor annexin V labeled the unstimulated platelets |
